Laboratory results from patent US10231956B2, “3-(1H-pyrrolo[3,2-C]pyridin-2-YL)-1 H-pyrazolo[4,3-B]pyridines and therapeutic uses thereof” (Samumed, LLC, priority 2015, dated 2019).

Experiments:
Type in all cases: cell-based
SW480 colon cancer cells = test: Cell viability assay (CellTiter-Blue) in SW480 colon cancer cells; details: Homo sapiens; for EC50: 96 h, four days, CellTiter-Blue; for inhibition at 10 µM: given for EC50 >10 μM, read-out: percent inhibition at 10 μM
In short: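 SW480 colon cancer cells (~2×10^3/well) exposed to 8-point 1:3 dilutions from 10 μM to 0.0045 μM for four days at 37 °C/5% CO2. Viability read by resazurin (CellTiter-Blue) fluorescence after ~3 h, Ex 560/Em 590 nm. EC50 from non-linear regression; percent inhibition at 10 μM given when EC50 >10 μM.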

[1] = system: primary human fibroblasts derived from IPF patients (LL29 cells); test: Inhibition of fibrotic process: αSMA staining in TGF-β1 treated LL29 fibroblasts; details: Fibroblast; for EC50: 96 h, TGF-β1 20 ng/mL, 4 days, % cells positive for αSMA; for inhibition at 10 µM: given for EC50 >10 μM, TGF-β1, αSMA, read-out: percent inhibition at 10 μM
In short: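 LL29 cells at 1,500/well in F12 with 1% FBS, compounds at 1 μM–1.87 nM (11-point, 0.1% DMSO), TGF-β1 20 ng/mL added 1 h later, 4 days at 37 °C. SYTOX-positive cells excluded; % αSMA-positive cells by immunofluorescence imaging, normalized to TGF-β1/DMSO wells, triplicates fitted for EC50; above 10 μM, % inhibition at 10 μM given.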

IL-6 = IL-6 inhibition in LPS-stimulated THP-1 cells (HTRF); details: Homo sapiens, LPS 500 ng/mL, 22 hours, IL6 HTRF

Row | SMILES | EC50 (SW480 colon cancer cells) [nM] | EC50 (IL-6) [nM] | EC50 [1] [nM] | inhibition at 10 µM (SW480 colon cancer cells) [%] | inhibition at 10 µM [1] [%]
1 | c1cc2[nH]c(-c3n[nH]c4ccc(-c5cncnc5)nc34)cc2cn1 [Compound 279, 5-(Pyrimidin-5-yl)-3-(1H-pyrrolo[3,2-c]pyridin-2-yl)-1H-pyrazolo[4,3-b]pyridine] | 1470 | 1110 | 2570 |  | 
2 | c1ccc(-c2ccc3[nH]nc(-c4cc5c(N6CCCCC6)nccc5[nH]4)c3n2)nc1 [Compound 196, 3-(4-(Piperidin-1-yl)-1H-pyrrolo[3,2-c]pyridin-2-yl)-5-(pyridin-2-yl)-1H-pyrazolo[4,3-b]pyridine] | 2830 | 1800 | 270 |  | 
3 | c1cc2[nH]c(-c3n[nH]c4ccc(-c5cncc(OC6CCCCC6)c5)nc34)cc2c(N2CCCCC2)n1 [Compound 607, 5-(5-(Cyclohexyloxy)pyridin-3-yl)-3-(4-(piperidin-1-yl)-1H-pyrrolo[3,2-c]pyridin-2-yl)-1H-pyrazolo[4,3-b]pyridine] | 300 | 1790 | > 10000 |  | 25.4
4 | c1cncc(-c2ccc3[nH]nc(-c4cc5c(N6CCCCC6)nccc5[nH]4)c3n2)c1 [Compound 172, 3-(4-(Piperidin-1-yl)-1H-pyrrolo[3,2-c]pyridin-2-yl)-5-(pyridin-3-yl)-1H-pyrazolo[4,3-b]pyridine] | 543 | 84 | 89 |  | 
5 | c1cncc(-c2ccc3[nH]nc(-c4cc5cnccc5[nH]4)c3n2)c1 [Compound 256, 5-(Pyridin-3-yl)-3-(1H-pyrrolo[3,2-c]pyridin-2-yl)-1H-pyrazolo[4,3-b]pyridine] | 161 | 73 | 243 |  | 
6 | CCCCC(=O)Nc1cncc(-c2ccc3[nH]nc(-c4cc5c(N6CCCCC6)nccc5[nH]4)c3n2)c1 [Compound 187, N-(5-(3-(4-(Piperidin-1-yl)-1H-pyrrolo[3,2-c]pyridin-2-yl)-1H-pyrazolo[4,3-b]pyridin-5-yl)pyridin-3-yl)pentanamide] | 4460 | 102 | 2220 |  | 

More lines, main results first:

Row | EC50 (SW480 colon cancer cells) [nM] | EC50 (IL-6) [nM] | SMILES | EC50 [1] [nM] | inhibition at 10 µM (SW480 colon cancer cells) [%] | inhibition at 10 µM [1] [%]
7 | > 10000 | 61 | Fc1ccccc1-c1nccc2[nH]c(-c3n[nH]c4ccc(-c5cncnc5)nc34)cc12 [Compound 83, 3-(4-(2-Fluorophenyl)-1H-pyrrolo[3,2-c]pyridin-2-yl)-5-(pyrimidin-5-yl)-1H-pyrazolo[4,3-b]pyridine] | > 10000 | 27.9 | 0
8 | 516 | 121 | Fc1ccc(-c2nccc3[nH]c(-c4n[nH]c5ccc(-c6cncc(CN7CCC(F)(F)C7)c6)nc45)cc23)cc1 [Compound 54, 5-(5-((3,3-Difluoropyrrolidin-1-yl)methyl)pyridin-3-yl)-3-(4-(4-fluorophenyl)-1H-pyrrolo[3,2-c]pyridin-2-yl)-1H-pyrazolo[4,3-b]pyridine] | 521 |  | 
9 | > 10000 | 3140 | CC(C)CC(=O)Nc1cncc(-c2ccc3[nH]nc(-c4cc5c(N6CCN(C)CC6)nccc5[nH]4)c3n2)c1 [Compound 226, 3-Methyl-N-(5-(3-(4-(4-methylpiperazin-1-yl)-1H-pyrrolo[3,2-c]pyridin-2-yl)-1H-pyrazolo[4,3-b]pyridin-5-yl)pyridin-3-yl)butanamide] | 325 | 37.8 | 
10 | 2700 | 2210 | CN(C)Cc1cncc(-c2ccc3[nH]nc(-c4cc5c(N6CCCCC6)nccc5[nH]4)c3n2)c1 [Compound 181, N,N-Dimethyl-1-(5-(3-(4-(piperidin-1l-yl)-1H-pyrrolo[3,2-c]pyridin-2-yl)-1H-pyrazolo[4,3-b]pyridin-5-yl)pyridin-3-yl)methanamine] | 1590 |  | 
